These are literature values, as cited in patent US20200224165A1, “METHODS AND COMPOSITIONS FOR REJUVENATION” (priority 2016, published 2020).

For the series the following is noted: without irradiation and chemotherapy.

As for `c1cc(CN2CCCNCCNCCCNCC2)ccc1CN1CCCNCCNCCCNCC1` [AMD3100], the “effectiveness as conditioning for HSCT” value is “not to be sufficiently effective”.
